Assay [1] can be described thus: DPPH radical scavenging assay. As to conditions: for IC50: isolated compounds and Trolox. On the procedure: The extract and fractions were prepared in dimethyl sulfoxide (DMSO) at a concentration of 1mg/mL, while the isolated compounds were tested in 500 µM.
The 2,2-diphenyl-1-picrylhydrazyl (DPPH) assay was performed as described previously. One hundred μL of DPPH reagent (freshly prepared as 0.1% in methanol) was mixed with equal volume of each sample. Then, the solutions were left in the dark at room temperature for […]. Trolox (6-hydroxy-2,5,7,8-tetramethylchroman-2-carboxylic acid) was used as a positive control. The absorbances were measured at 517 nm. Data are represented as means ± SD according to the following equation:
Percentage inhibition = [(Average absorbance of blank - average absorbance of the test)/(Average absorbance of blank)] x 100
The IC50 of each tested sample was determined.
Background: Loss of DPPH colour is used to gauge radical scavenging.

For the next assay, the system named is iNOS. Kind of assay: iNOS inhibitory activity in LPS-induced RAW264.7 macrophages (nitrite, Griess reagent). Type of assay: cell-based. As to conditions: Mus musculus. How it is done:
The RAW264.7 macrophage cells were grown on DMEM media, supplemented with 10% FBS and 1% P/S (100 U/ml and […], respectively). The RAW264.7 macrophage cells were kept in DMEM at 37 °C and 5% CO2. For the anti-inflammatory assays, cells were used at 60% confluency after a 24-hour acclimatization period.
Stock solutions of the extract, fractions (1 mg/mL) and the isolated compounds (1000 μM) were made by dissolving in 0.1% DMSO in PBS (pH 7.2). For experiments, they were further diluted with DMEM to obtain the desired concentration. In a 96-well plate, the RAW264.7 macrophages were seeded (4 × 10^3 cells per well) overnight, then washed with DMEM. The macrophages were pre-treated with various concentrations of the extract, fractions (125- 0.98 µg/mL), isolated compounds, and standard drugs (125 - 0.06 µM) for 30 min, and further incubated with LPS (1 μg/mL) for 24 h. For the negative control, cells were treated with 0.1% DMSO (negative control LPS-). After incubation, the monolayer of […] cells were washed with ice-cold PBS (pH 7.2), trypsinized, and treated with lysis buffer (1% Triton X-100, 50 mMTris–HCl, pH 7.4, 0.2% sodium dodecyl sulfate, 0.2% sodium deoxycholate, 1 mM phenylmethylsulfonyl fluoride, 1 mM sodium ethylenediaminetetraacetate, 5 μg/mL of leupeptin, 5 μg/mL of aprotinin) then centrifuged (5000 rpm for 10 min) to collect the supernatant, The cell lysates were stored at − 80 °C utilized for anti-inflammatory assays.
The inhibitory activity of Inducible nitric oxide synthase (iNOS) was determined in terms of nitric oxide (NO) concentration by measuring the quantity of nitrite in the cell culture supernatant using Griess reagent. Equal volumes of each cell lysate (100 µL) and Griess reagent (1% sulfanilamide, 0.1% naphthylethylenediamine dihydrochloride, and 5% phosphoric acid) were mixed and incubated at room temperature for 10 min. Using a microplate reader, absorbances at 540 nm were measured. Parthenolide served as a positive control. The % inhibition was calculated using the following formula:
iNOS % Inhibition= [(OD control−OD sample)/ OD control x 100].
In general terms: Nitrite, measured by Griess reagent, commonly stands in for NO production.

Another assay concerns the target AChE (Homo sapiens, UniProt P22303). Kind of assay: biochemical. On the procedure: (§1) The cholinesterase inhibitory activity was determined colorimetrically as previously published method with slight modifications. […] In a 96-well plate, 170 μl Tris-HCl buffer (200 mM, pH 7.5) was mixed with 20 μL of each tested sample solution and 20 μL of 0.1 U/ml enzyme solution (Ache or BChE) containing 0.1% bovine serum albumin in the same buffer. Dithio-bis-(2-nitrobenzoic acid) DTNB, an indicator, was added after 10 min of incubation at 25 °C (0.69 mM in tris buffer). […] In the control assays without the inhibitors, the tested samples were replaced by DMSO (20 μl) and their absorbance values were recorded (Reading B). Regarding the blank assays, the buffer (20 μL) was added instead of the enzyme.
(§2) The % inhibition was calculated using the following formula:
(§3) % of inhibition = [1− (corrected A/corrected B)] * 100

The next assay concerns the target BChE (Homo sapiens, UniProt P06276). Kind of assay: biochemical. On the procedure: as §1, §2, §3
[2] abbreviates: LPS-induced RAW264.7 macrophages, isolated compounds and Parthenolide, read-out: iNOS IC50.

Read-outs that look alike come from different tables or passages of the source.

As a reminder, the IC50 is the midpoint of a concentration-inhibition curve.

Chain of AChE (P22303 32-614): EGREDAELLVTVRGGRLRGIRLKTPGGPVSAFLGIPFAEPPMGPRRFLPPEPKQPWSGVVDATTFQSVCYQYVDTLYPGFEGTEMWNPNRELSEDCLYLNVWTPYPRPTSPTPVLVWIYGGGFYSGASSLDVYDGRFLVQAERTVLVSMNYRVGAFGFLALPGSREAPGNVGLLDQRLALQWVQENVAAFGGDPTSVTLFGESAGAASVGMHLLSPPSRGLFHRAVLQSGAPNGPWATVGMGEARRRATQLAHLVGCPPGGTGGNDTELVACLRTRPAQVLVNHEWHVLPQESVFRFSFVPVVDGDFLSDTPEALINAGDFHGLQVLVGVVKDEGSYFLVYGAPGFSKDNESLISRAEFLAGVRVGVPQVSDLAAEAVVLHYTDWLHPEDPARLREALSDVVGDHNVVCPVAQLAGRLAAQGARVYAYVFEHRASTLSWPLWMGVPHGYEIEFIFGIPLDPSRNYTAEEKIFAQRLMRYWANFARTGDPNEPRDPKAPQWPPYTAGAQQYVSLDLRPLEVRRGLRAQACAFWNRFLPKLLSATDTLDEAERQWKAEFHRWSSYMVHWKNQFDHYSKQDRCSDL
Chain of BChE (P06276 29-602, species assumed): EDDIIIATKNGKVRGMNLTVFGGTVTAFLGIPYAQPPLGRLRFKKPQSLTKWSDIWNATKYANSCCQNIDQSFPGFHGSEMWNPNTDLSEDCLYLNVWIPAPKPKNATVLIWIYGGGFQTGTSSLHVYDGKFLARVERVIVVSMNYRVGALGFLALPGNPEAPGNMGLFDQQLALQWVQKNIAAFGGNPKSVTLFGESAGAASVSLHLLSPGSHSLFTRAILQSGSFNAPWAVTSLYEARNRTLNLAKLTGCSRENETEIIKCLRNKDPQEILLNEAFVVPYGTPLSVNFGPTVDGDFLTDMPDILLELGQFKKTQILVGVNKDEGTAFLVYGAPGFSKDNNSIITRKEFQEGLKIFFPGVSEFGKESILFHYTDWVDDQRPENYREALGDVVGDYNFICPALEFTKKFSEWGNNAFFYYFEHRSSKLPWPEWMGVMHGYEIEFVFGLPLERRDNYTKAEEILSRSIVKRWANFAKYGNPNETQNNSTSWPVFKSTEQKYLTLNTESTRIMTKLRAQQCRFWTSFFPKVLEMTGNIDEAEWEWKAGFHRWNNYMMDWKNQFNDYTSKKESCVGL

`CCCCCCCC/C=C\CCCCCCCC(N)=O` [A1, 9-cis-octadecenamide]: the IC50 in assay [1] was determined as 21.67 ± 0.21 µM; with iNOS (RAW264.7, read-out: iNOS IC50) it was 10.3 ± 0.12 µM; against AChE, 8.37 ± 0.1 µM; against BChE, 9.29 ± 0.29 µM.
As for `CC[C@H](/C=C/[C@@H](C)[C@H]1CC[C@H]2[C@@H]3CC=C4C[C@@H](O)CC[C@]4(C)[C@H]3CC[C@]12C)C(C)C` [A2, stigmasterol], the IC50 in assay [1] came out at 16.4 ± 0.23 µM; with iNOS (RAW264.7, read-out: iNOS IC50), 6.72 ± 0.08 µM.
Regarding `CCCCC/C=C/C=C/C(=O)NCCc1ccccc1` [A3, 2E, 4E-deca-2,4-dienoic acid 2-phenylethyl amide], the IC50 in assay [1] came out at 17.73 ± 0.16 µM; in the assay with iNOS (setting [2]), 9.15 ± 0.12 µM; at AChE, 7.7 ± 0.26 µM; at BChE, 8.65 ± 0.25 µM.
As to `CCCCC/C=C/C=C/C(=O)NCC(C)C` [A4, deca-2E,4E-dienoic acid isobutylamide], the IC50 in assay [1] is 22.6 ± 0.41 µM; in the assay with iNOS (RAW264.7, read-out: iNOS IC50), 11.4 ± 0.36 µM.
As to `C=C1C(=O)O[C@H]2[C@H]1CC/C(C)=C/CC[C@@]1(C)O[C@@H]21` [Parthenolide, reference compound], the IC50 with iNOS (setting [2]) turned out to be 4.1 ± 0.08 µM.
Take `Cc1c(C)c2c(c(C)c1O)CCC(C)(C(=O)O)O2` (stereo not drawn) [Trolox, 6-hydroxy-2,5,7,8-tetramethylchroman-2-carboxylic acid, reference compound]: the “DPPH IC50” value in assay [1] (extract, fractions and Trolox standard) is listed as 1.41 ± 0.08 µg/mL. This compound also showed an IC50 in assay [1] of 5.63 µM.

The values above are taken from PMC10655324, “Combinative effects of akarkara root-derived metabolites on anti-inflammatory and anti-alzheimer key enzymes: integrating bioassay-guided fractionation, GC-MS analysis, and in silico studies” (BMC Complementary Medicine and Therapies, 2023).
